Experiment [1] can be described thus: Inhibition of Humanized-Xenopus MDM2 (13-119 amino acids) interaction with p53 by SPR analysis. Also noted: species or system Homo sapiens. A general note: SPR reads the build-up and loss of mass on a sensor chip optically.
The species named for experiment [2] is Homo sapiens. The experiment can be described thus: Inhibition of [15N]-labeled humanized-Xenopus MDM2 (13-119 amino acids) interaction with p53 at 0.5 mM by NMR method.
The species entered for experiment [3] is Homo sapiens. In words: Inhibition of [15N]-labeled humanized-Xenopus MDM2 (13-119 amino acids) interaction with p53 at 0.4 mM by NMR method.
The species entered for experiment [4] is Homo sapiens. The experiment can be described thus: Inhibition of [15N]-labeled humanized-Xenopus MDM2 (13-119 amino acids) interaction with p53 at 2 mM by NMR method.
The species entered for experiment [5] is Homo sapiens. In words: Inhibition of Humanized-Xenopus MDM2 (13-119 amino acids) interaction with p53 at 100 uM by SPR analysis.
The species entered for experiment [6] is Homo sapiens. In words: Inhibition of [15N]-labeled humanized-Xenopus MDM2 (13-119 amino acids) interaction with p53 at 1 mM by NMR method.
The species named for experiment [7] is Homo sapiens. In words: Inhibition of Humanized-Xenopus MDM2 (13-119 amino acids) interaction with p53 at 1 to 2.5 mM by SPR analysis.

Structures are written as SMILES. The source made the active and inactive calls. The rule behind the calls is not given here.

Broadly, the Kd is the equilibrium constant for the complex coming apart.

In turn, `CCOc1cc(C(C)(C)C)ccc1C1=N[C@@](C)(c2ccc(Cl)cc2)[C@@](C)(c2ccc(Cl)cc2)N1C(=O)N1CCN(CCCS(C)(=O)=O)CC1` [RO-5045337] came in with a Kd in experiment [1] of 0.22 µM. For the same compound, the inhibition result in the experiment listed under Homo sapiens [2] was “Active”.
With `CCOc1cc(C(C)(C)C)ccc1C1=N[C@@](C)(c2ccc(Cl)cc2)[C@@](C)(c2ccc(Cl)cc2)N1`, the affinity in experiment [1], expressed as Kd, was 20 µM. In addition, the inhibition entry in the experiment listed under Homo sapiens [3] was “Active”.
As for `CCOc1cc(C(C)(C)C)ccc1C1=NCC(c2ccc(Cl)cc2)N1` (configuration not stated), in the experiment filed under Homo sapiens [4], the inhibition result is “Active”. In the experiment filed under Homo sapiens [5], the inhibition result is “inactive”.
The compound `CC1=N[C@@](C)(c2ccc(Cl)cc2)[C@@](C)(c2ccc(Cl)cc2)N1C(=O)N1CCN(CCCS(C)(=O)=O)CC1` came in with a Kd in experiment [1] of 14 µM. The inhibition result in the experiment filed under Homo sapiens [6] was “Active”.
Regarding `CCOc1cc(C(C)(C)C)ccc1-c1ncc[nH]1`, the inhibition result in the experiment listed under Homo sapiens [4] and in the experiment listed under Homo sapiens [7] was “inactive” each time.
In the case of `CC1=N[C@@H](c2ccccc2)[C@@H](c2ccccc2)N1`, the inhibition entry in the experiment listed under Homo sapiens [4] and in the experiment filed under Homo sapiens [7] was “inactive” in each case.
Take `CCOc1cc(C(C)(C)C)ccc1C1=NCCN1C(=O)N1CCN(CCCS(C)(=O)=O)CC1`: the inhibition result in the experiment filed under Homo sapiens [6] and in the experiment listed under Homo sapiens [5] was “inactive” throughout.
Regarding `Clc1ccccc1`, the inhibition entry in the experiment filed under Homo sapiens [6] and in the experiment filed under Homo sapiens [7] was “inactive” each time.
The compound `CC1=N[C@@H](c2ccc(Cl)cc2)[C@@H](c2ccc(Cl)cc2)N1` had a Kd in experiment [1] of 26 µM. The inhibition result in the experiment listed under Homo sapiens [3] is “Active”.
In the case of `c1c[nH]cn1`, the inhibition entry in the experiment filed under Homo sapiens [6] and in the experiment filed under Homo sapiens [7] was “inactive” each time.
Consider `CCOc1cc(C(C)(C)C)ccc1C1=NC(c2ccccc2)CN1C(=O)N1CCN(CCCS(C)(=O)=O)CC1` (configuration not stated), for which, in experiment [1], binding was characterised by a dissociation constant (Kd) of 1000 µM. In the experiment filed under Homo sapiens [6], the inhibition result is “Active”.
